This is an account of results in article PMC7395176, “Retromer stabilization results in neuroprotection in a model of Amyotrophic Lateral Sclerosis” (Nature Communications, 2020).

Test [1] addresses VPS29-VPS35 heterodimer (Homo sapiens, UniProt Q96QK1+Q9UBQ0). The experiment in a line: STD-NMR and WaterLogsy-NMR ligand-based binding experiments. The conditions noted are these: 2a 500 μM, VPS29-VPS35 10 μM. The method, then:
We used a ligand-based NMR approach to localize the binding between compound 2a and the VPS29-VPS35 heterodimer. These techniques provide binding information without requiring any isotopic labeling of the proteins. Particularly, Saturation Transfer Difference NMR (STD-NMR)[32] and WaterLogsy-NMR (WL-NMR)[33] experiments were acquired in buffer solutions containing a large excess of compound 2a (500μM) with respect to VPS29-VPS35 (10 μM). Both STD-NMR and WL-NMR focus on the NMR signals of the ligand and utilize the magnetization transfer by the Nuclear Overhauser Effect (NOE) between protein and ligand. STD-NMR experiments are carried out by subtraction of a 1D ^1H spectrum where the protein protons are selectively irradiated (on-resonance spectrum) from a spectrum in which the protein is not saturated (off-resonance spectrum).
WL-NMR entails magnetization transfer to the ligand from either bulk water via a macromolecule, and/or the exchangeable protons and the water molecules present in the binding site. Positive peaks for proton resonances of the ligand in the WL-NMR spectrum are observed for binders in presence of the protein. […] As negative control, STD-NMR and WL-NMR experiments were performed for compound 2a in absence of the heterodimer. The absence of proton signals in the aromatic zone and the presence of negative signals in STD-NMR (Fig. 2k) and WL-NMR (Fig. 2l) spectra, respectively, confirms the binding between compound 2a and the VPS29-VPS35 heterodimer. Unfortunately, STD- and WL-NMR competition experiments between 2a and R55/1 could not be performed since the latter compound was not stable in our experimental conditions.
NMR spectra were acquired at 298K on a Bruker Avance NEO 700 MHz spectrometer equipped with a Z-gradient cryoprobe. The spectra were processed with the Bruker TOPSPIN 4.0.5 software packages. […] 1D ^1H spectra were recorded using a 1 s presaturation pulse with a B1 power of 200 Hz. […]

Test [2] deals with poly-ubiquitinated proteins. In words: Poly-ubiquitinated proteins in lumbar SC and MNs of treated G93A mice. In kind it is in vivo. The following applies: 10 mg/kg, day 100. An excerpt: Ubiquitinated inclusions accumulate in MNs from sALS and fALS patients, and in ALS mice[51]. We characterized poly-ubiquitinated proteins in lumbar SCs protein extracts by 10% denaturating PAGE. Protein extracts from Neuro2a cells treated with the proteasome inhibitor Bortezomib (BTZ), able to increase poly-ubiquitination, were used as an experimental control[52] (Fig. 7a). […] We next scored ubiquitin MFI levels in ventral horn MNs of G93A mice. […] (Fig. 7c and d). We next scored the Golgi apparatus in G93A mice by labeling lumbar sections for the cis-Golgi matrix protein GM130[54]. […] (Fig. 7e).
Fluorescence intensity levels of VPS35, VPS26, CI-MPR, Sortilin, CTSD and Ubiquitin were calculated using NHI-Image J software (US National Institutes of Health) according to the following protocol: stacks of confocal images were used to generate the maximal projections using the Leica Application Suite X (2.0.0.14332) software and then postprocessed by NHI-Image J to crop single NeuN^+ MNs from the ventral horn of the spinal cord. We next performed background (calculated on adjacent slices only receiving secondary antibodies) subtraction for each channel, before applying the NHI-Image J mean filter (with radius 2.0 pixels) to calculate mean NeuN fluorescence levels in individual MNs. […] On this ROI, we measured mean fluoresce levels (MFI) of target proteins.

For test [3], the system named is SOD1^G93A-transfected Neuro2a cells. In words: Golgi morphology (Golgin97) in SOD1G93A-transfected Neuro2a cells. In kind it is cell-based. The following applies: 10 µM. An excerpt: The Golgi apparatus is affected in MNs from ALS patients and in cells overexpressing mutant SOD1 forms[35]–[37]. We transiently transfected Neuro2a cells with plasmids encoding SOD1^G93A before treatment with compound 2a. […] We next determined the viability of Neuro2a cells transfected with SOD1^G93A and exposed to compound 2a using a colorimetric assay. Controls cells received LacZ plasmids. […] We observed a slight, but not significant, reduction of cell viability in […] Neuro2a cells (Fig. 3b). […] The increased cell viability provided by compound 2a could result from unknown, nonspecific off-target effects. Therefore, we used plasmids encoding VPS35 to increase/stabilize the retromer complex. […] However, this phenotype was reverted co-transfecting VPS35 and SOD1^G93A plasmids (Fig. 3c).
Golgi morphology was assessed in control or in Neuro2a cells receiving G93A plasmids with or without compound 2a (10 µM) as well as in GFP-transfected cells as additional control. We used Golgin97 immunofluorescence to label trans-Golgi network membranes. We classified Golgi morphology as follow: normal (polarized network), intermediate (partially fragmented) or fragmented (severely fragmented with Golgi stacks dispersed in the cytoplasm throughout). […] Golgi subclasses were expressed as a percent of the total number of Golgi scored for each experimental condition.

On to `NC(N)=N/N=C/c1cccc(/C=N/N=C(N)N)c1` [compound 2a, phenyl-1,3-bis-guanylhydrazone], for which, in test [1], the STD-NMR binding result was “interaction between the ligand and the protein complex”; the WL-NMR binding entry is given as “binds to the protein complex”. Besides, in test [2], the “poly-ubiquitinated proteins in lumbar SC extracts (WB)” value was “substantially reduced” and the “ubiquitin MFI levels in ventral horn MNs” value is on record as “vehicle-treated G93A MNs were higher than in compound 2a-treated G93A mice”. In addition, the trans-Golgi fragmentation entry in test [3] was “significantly reverted this phenotype”.
